Values joined by “and” are separate entries in the source; they are usually repeats but may differ in a detail not shown here. Equal values may be shown once.
Experiments:
rats = test system: rats
Experimental: The compound prepared according to Example 1 was subjected to a toxicity study in accordance with techniques well-known in the art. The study was conducted on rats over a three-day testing period.

[1] = prior-art antisickling agent; cited from earlier work
[2] = second day, 0.01% dosage, individual rats #A-#D, listed as active agent

Structure (SMILES) | rats killed after administration of the drug formulation (rats; rats, three days, 0.001%, 0.01%, 0.1% of rat weight on days 1, 2, 3) | toxicity (rats; rats, three-day study, 0.001%, 0.01%, 0.1% of rat weight) | Body Fluid Concentraton 0.01% (rats; [2]) | Weight After (rats; [2]) | Weight Before (rats; [2]) | Weight Change (rats; [2]) | toxicity [1]
Cc1c(C)c2c(c(C)c1OC(=O)C(N)CC[S+](C)CC1OC(n3cnc4c(N)ncnc43)C(O)C1O)CCC(C)(CCCC(C)CCCC(C)CCCC(C)C)O2.[I-] (stereo not drawn) [Example 1, α-(S-adenosylmethionine)-O-tocopherol] | none of the rats tested were killed | substantially non-toxic | 0.14 and 0.07 | 28.5 grams and 26.4 grams and 29.5 grams | 28.3 grams and 26.3 grams and 29.4 grams | 0.2 grams and 0.1 grams | –
N#CO [potassium cyanate] | – | – | – | – | – | – | rather high toxicity

Reference: US5108754A, “Orthomolecular method of treating sickle cell disease” (priority 1991, dated 1992)
